# Source: paper PMC10065276, “Enhanced therapeutic window for antimicrobial Pept-ins by investigating their structure-activity relationship” (PLOS ONE, 2023)
# Positions of bridges follow the written chain, without caps; N, C: chain ends. Residues, ends and D or L forms follow the SMILES beside them.
# System: E. coli BL21
# Settings: BL21, 17 h
# Procedure, shortened: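 EUCAST broth microdilution in Mueller-Hinton medium; end-exponential culture diluted to 0.005 McF (~1.5x10^6 CFU/mL) before 1:1 mixing with two-fold peptide dilutions (0.75 to 100 μg/mL), triplicates.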
smiles,measurement,value
CC(C)C[C@H](NC(=O)CNC(=O)[C@H](CCCNC(=N)N)NC(=O)[C@@H]1CCCN1C(=O)[C@H](CCCNC(=N)N)NC(=O)[C@H](CCCNC(=N)N)NC(=O)[C@@H](NC(=O)CNC(=O)[C@H](C)NC(=O)[C@H](CC(C)C)NC(=O)CNC(=O)[C@H](CC(C)C)NC(=O)CNC(=O)[C@@H](N)CCCNC(=N)N)C(C)C)C(=O)NCC(=O)N[C@@H](CC(C)C)C(=O)N[C@@H](C)C(=O)NCC(=O)N[C@H](C(=O)N[C@@H](CCCNC(=N)N)C(=O)N[C@@H](CCCNC(=N)N)C(=O)O)C(C)C [L6G (P2)] (H-RGLGLAGVRRPRGLGLAGVRR-OH),BL21 MIC,100.00 µg/mL
CC(C)C[C@H](NC(=O)CNC(=O)[C@H](CCCNC(=N)N)NC(=O)[C@@H]1CSSC[C@H](NC(=O)[C@@H](NC(=O)[C@H](CC(C)C)NC(=O)[C@H](C)NC(=O)[C@H](CC(C)C)NC(=O)CNC(=O)[C@H](CC(C)C)NC(=O)CNC(=O)[C@@H](N)CCCNC(=N)N)C(C)C)C(=O)N[C@@H](CCCNC(=N)N)C(=O)N[C@@H](CCCNC(=N)N)C(=O)N[C@@H]([C@@H](C)O)C(=O)NCC(=O)N1)C(=O)NCC(=O)N[C@@H](CC(C)C)C(=O)N[C@@H](C)C(=O)N[C@@H](CC(C)C)C(=O)N[C@H](C(=O)N[C@@H](CCCNC(=N)N)C(=O)N[C@@H](CCCNC(=N)N)C(=O)O)C(C)C [Peptide P2_H12_TG] (H-RGLGLALVCRRTGCRGLGLALVRR-OH; disulfide 9-14),"BL21 MIC, SS bond",6.50 µg/mL
same,"BL21 MIC, no SS bond",6.25 µg/mL
CC(C)C[C@H](NC(=O)CNC(=O)[C@H](CCCNC(=N)N)NC(=O)[C@H](Cc1c[nH]c2ccccc12)NC(=O)[C@H](C)NC(=O)[C@H](CCCNC(=N)N)NC(=O)[C@@H](NC(=O)[C@H](CC(C)C)NC(=O)[C@H](C)NC(=O)[C@H](CC(C)C)NC(=O)CNC(=O)[C@H](CC(C)C)NC(=O)CNC(=O)[C@@H](N)CCCNC(=N)N)C(C)C)C(=O)NCC(=O)N[C@@H](CC(C)C)C(=O)N[C@@H](C)C(=O)N[C@@H](CC(C)C)C(=O)N[C@H](C(=O)N[C@@H](C)C(=O)N[C@@H](CCCNC(=N)N)C(=O)O)C(C)C [Peptide P2_4R_W] (H-RGLGLALVRAWRGLGLALVAR-OH),BL21 MIC,12.50 µg/mL
CC(C)C[C@H](NC(=O)CNC(=O)[C@H](CCCNC(=N)N)NC(=O)[C@@H]1CCCN1C(=O)[C@H](CCCNC(=N)N)NC(=O)[C@H](CCCNC(=N)N)NC(=O)[C@@H](NC(=O)[C@H](CC(C)C)NC(=O)[C@H](C)NC(=O)[C@H](CC(C)C)NC(=O)CNC(=O)[C@H](CC(C)C)NC(=O)CNC(=O)[C@@H](N)CCCNC(=N)N)C(C)C)C(=O)NCC(=O)N[C@@H](C)C(=O)N[C@@H](C)C(=O)N[C@@H](CC(C)C)C(=O)N[C@H](C(=O)N[C@@H](CCCNC(=N)N)C(=O)N[C@@H](CCCNC(=N)N)C(=O)O)C(C)C [Peptide P2_L16A] (H-RGLGLALVRRPRGLGAALVRR-OH),BL21 MIC,50.00 µg/mL
CC(C)C[C@H](NC(=O)CNC(=O)[C@H](CCCNC(=N)N)NC(=O)[C@@H]1CCCN1C(=O)[C@H](CCCNC(=N)N)NC(=O)[C@H](CCCNC(=N)N)NC(=O)[C@@H]1CCCN1C(=O)[C@H](CC(C)C)NC(=O)[C@H](C)NC(=O)[C@H](CC(C)C)NC(=O)CNC(=O)[C@H](CC(C)C)NC(=O)CNC(=O)[C@@H](N)CCCNC(=N)N)C(=O)NCC(=O)N[C@@H](CC(C)C)C(=O)N[C@@H](C)C(=O)N[C@@H](CC(C)C)C(=O)N1CCC[C@H]1C(=O)N[C@@H](CCCNC(=N)N)C(=O)N[C@@H](CCCNC(=N)N)C(=O)O [P2_zero_tango_4] (H-RGLGLALPRRPRGLGLALPRR-OH),BL21 MIC,>100.00 µg/mL
